This assay relates to T1, SpSL (two-domain laccase of Streptomyces puniceus).
T1 construct: TAT signal peptide (1-34) removed: forward primer GGATCC-GAGAAGCCGCCCCG starts the insert at EKPP; pQE-30 (His-tag, cleavage not mentioned), E. coli M15 (pREP4), HisTrap; precursor 344 residues; 110 kDa native homotrimer
In words: oxidation kinetics, nonlinear regression. The class given is biochemical. Conditions: apparent constant, co-substrate O2. The text has this: oxidation kinetics, nonlinear regression on SpSL (two-domain laccase of Streptomyces puniceus)

[1] abbreviates: pH of kinetics not printed (alkaline optimum).

Each structure is given as a SMILES string.

As usually defined, the Km is the concentration of substrate that gives half-maximal velocity.

As for `COc1cccc(OC)c1O` [2,6-Dimethoxyphenol], the Km under setting [1] was found to be 1150 ± 100 µM.

For `COc1ccccc1O` [2-Methoxyphenol], the Km under setting [1] came out at 5700 ± 250 µM.

Consider `CCn1c(=NN=c2sc3cc(S(=O)(=O)O)ccc3n2CC)sc2cc(S(=O)(=O)O)ccc21` [ABTS], for which the Km (pH of kinetics not printed (routine ABTS assay: 20 mM Na-acetate pH 5.0, 420 nm)) amounted to 370 ± 21 µM.
